Source: patent EP0374919A1, “Morphine derivative” (Chugai Seiyaku Kabushiki Kaisha, priority 1988, dated 1990)
Where two headings read alike, the source gives them in different places.

Key:
male mice (Slc: ddy) [1] = experiment: Analgesic effect examined by acetic acid-writhing test; type: in vivo; conditions: subcutaneous injection 30 minutes before 0.6% acetic acid i.p., writhings counted within 10 minutes, 7 mice per group
Procedure: Example 8 Analgesic Effect Examined by Acetic Acid- Writhing Test:
Male mice (Slc: ddy) aged 5 weeks were divided into groups each having 7 animals. […] After 30 minutes, 0.6% acetic acid was intraperitoneally administered to each mouse in a dose of 0.1 ml/10 g. 10 minutes thereafter, the writhings thus induced were counted within 10 minutes. […] The acetic acid-writhing test was conducted according to a method reported by R. Koster, M. Anderson and E.I. Debeer [refer to Fed. Proc., 18, 412 (1959)].

[2] = tested on: extirpated guinea pig ileum pieces; experiment: Transmural electric stimulation test on an extirpated guinea pig ileum piece (smooth muscle contraction); type: cell-based; conditions: for pD₂: transmural electric stimulation 0.1 Hz, smooth muscle contraction
Procedure: Example 7 Transmural Electric Stimulation Test on an Extirpated Guinea Pig Ileum Piece:
The effects of the compounds were examined by applying transmural electric stimulation (0.1 Hz) to extirpated guinea pig ileum pieces while using the smooth muscle contraction as an indication [refer to H.K. Kopsterlitz, A.A. Waterfield; Annu. Rev. Pharmacol., 15, 29 - 47 (1975)].
The data shown in Table 1 were calculated according to a method reported by Arunlakshana and Schild [refer to 0. Arunlakashana, H.O. Schild; Brit. J. Pharmacol., 14, 48 - 58 (1959)]. Each value is expressed in mean ± standard deviation.

male mice (Slc: ddy) [3] = experiment: Analgesic examination by radiant heat-stimulation test (tail irradiation, pain threshold); type: in vivo; conditions: for analgesic effect (pain threshold): range 0.03 to 1.0 mg/kg
Procedure: Example 6 Analgesic Examination by Radiant Heat-Stimulation Test:
Each group had 7 animals. An hour after the injection, the analgesic effect of each compound was examined by radiant heat-stimulation test [refer to A.G. Hayes, M.J. Sheehan, M.B. Tyers; Brit. J. Pharmacol., 91, 111 - 115 (1987)]. Namely, the tail of each mouse was irradiated with intense light and the time required until the animal switched its tail was measured. The value thus measured was referred to as the pain threshold.

[4] = antagonism by naloxone, method of Arunlakshana and Schild, mean ± standard deviation
[5] = subcutaneous, an hour after the injection, p < 0.01 in Dunnett's t-test
[6] = subcutaneous, an hour after the injection

SMILES | ED₅₀ (male mice (Slc: ddy) [1]) | pA₂ (naloxone) [2, 4] | pD₂ ([2]; mean ± standard deviation) | dose with statistically significant analgesic effect (male mice (Slc: ddy) [3]; [5]) | analgesic effect (pain threshold) (male mice (Slc: ddy) [3]; [6]) | other results
CCC(=O)Oc1ccc2c3c1O[C@H]1[C@H](SC(=O)CC)C=C[C@H]4[C@@H](C2)N(CC2CC2)CC[C@@]341 [Compound IX, 3-propionyl-6β-propionylthio-cyclopropylmethylnormorphine] | 0.047 mg/kg | – | – | – | – | –
CC(=O)S[C@@H]1C=C[C@H]2[C@H]3Cc4ccc(O)c5c4[C@@]2(CCN3CC2CC2)[C@H]1O5 [Compound VI, 6β-acetylthio-N-cyclopropylmethylnormorphine] | – | 7.75 ± 0.12 | 8.38 ± 0.06 | 1.0 mg/kg | analgesic effect depending on dose | –
CC(=O)Oc1ccc2c3c1O[C@H]1[C@H](SC(C)=O)C=C[C@H]4[C@@H](C2)N(CC2CC2)CC[C@@]341.Cl [Compound VII, 3-acetyl-6β-acetylthio-N-cyclopropylmethylnormorphine hydrochloride] | 0.062 mg/kg | 7.80 ± 0.13 | 9.01 ± 0.16 | 1.0 mg/kg | analgesic effect depending on dose | –
CN1CC[C@]23c4c5ccc(O)c4O[C@H]2[C@@H](O)C=C[C@H]3[C@H]1C5.Cl [Morphine hydrochloride, reference compound] | – | – | – | – | – | pA₂ (naloxone) [2]: 8.45 ± 0.13; dose with statistically significant analgesic effect (male mice (Slc: ddy) [3]; mouse, in vivo, sc): ≥ 3.2 mg/kg
CC(C)=CCN1CCC2(C)c3cc(O)ccc3CC1C2C (stereo not shown) [Pentazocine, reference compound] | – | – | – | – | – | ED50 (male mice (Slc: ddy) [1]; Mus musculus, sc, read-out: ED₅₀): 0.869 mg/kg
